In one experiment the test system is NF-κB. As to the kind of experiment: NF-κB luciferase reporter assay (pNF-κB-Luc), SW620. The format is cell-based, human. Particulars: SW620, 30-150 μg/ml, 8 h. The method, then:
FIG. 1B: Colon cancer cells were transfected with pNF-κB-Luc plasmid (5×NF-κB) and then activated with TNF-α (150 U/ml) alone or TNF-α plus different concentrations (30-150 μg/ml) of thiacremonone at 37° C. in both SW620 (panel a and b) and HCT116 (panel c and d) colon cancer cells, and then the luciferase activity was determined. All values represent mean±S.D. of three independent experiments performed in triplicate. RLU is relative to luciferase activity in transfected unstimulated cells. *P<0.05 indicates statistically significant differences from the TNF-α-treated group.
SW620 and HCT116 human colon cells (2.5×10^5 cells/cm^2) were plated in 24-well plates and transiently transfected with pNF-κB-Luc plasmid (5×NF-κB; Stratagene, La Jolla, Calif., USA) using a mixture of plasmid and lipofectAMINE PLUS in OPTI-MEN according to manufacturer's specifications (Invitrogen, Carlsbad, Calif., USA). The transfected cells were treated with tumor necrosis factor-α (TNF-α) (10 ng/ml) or TPA (50 nM) and different concentrations (30-150 μg/ml) of thiacremonone for 8 h. Luciferase activity was measured by using the luciferase assay kit (Promega, Madison, Wis., USA) according to the manufacturer's instructions (WinGlow, Bad Wildbad, Germany).
On the technique in general: In a reporter assay the amount or activity of a reporter protein is the signal.

Another experiment concerns SW620 colon cancer cells. The experiment is described as follows: Western blot of apoptosis regulatory proteins, SW620. The format is cell-based, human. The settings on record: SW620, 30-150 μg/ml, 24 h. Here is the method: The cells were treated with different concentrations (30-150 μg/ml) of thiacremonone at 37° C. for 24 h. Equal amounts of total proteins (50 μg/lane) were subjected to 12% SDS-PAGE. Expressions of Bax, cleaved caspase-3, cleaved PARP, Bcl-2, cIAP1/2, XIAP, and β-actin were detected by western blotting using specific antibodies. β-Actin protein was used an internal control. Panel a: SW620 colon cancer cells. Panel b: HCT116 colon cancer cells. Each band is representative of three independent experiments.
Cultured cells were washed twice with 1×PBS, followed by the addition of 1 ml of PBS, and the cells were scraped into a cold Eppendorf tube. Cells were homogenized with lysis buffer [50 mM Tris pH 8.0, 150 mM NaCl, 0.02% sodium azide, 0.2% SDS, 1 mM PMFS, 10 μl/ml aprotinin, 1% igapel 630 (Sigma-Aldrich, St. Louis, Mo., USA), 10 mM NaF, 0.5 mM EDTA, 0.1 mM EGTA, and 0.5% sodium deoxycholate] and centrifuged at 23,000×g for 15 min. The protein concentration was measured by the Bradford method (Bio-Rad Protein Assay; Bio-Rad Laboratories Inc., Hercules, Calif., USA), and equal amount of proteins (50 μg) were separated on a SDS/12%-polyacrylamide gel and then transferred to a Hybond ECL nitrocellulose membrane (Amersham Pharmacia Biotech Inc., Piscataway, N.J., USA). Blots were blocked for 2 h at room temperature with 5% (w/v) non-fat dried milk in Tris-buffered saline [10 mM Tris (pH 8.0) and 150 mM NaCl] solution containing 0.05% tween-20. […] Immunoreactive proteins were detected with the ECL Western blotting detection system. The relative density of the protein bands was scanned by densitometry using MyImage (SLB) and quantified by Labworks 4.0 software (UVP Inc.).
For orientation: Immunoblotting shows a protein as a band on a membrane.

Molecules are shown by their SMILES.

`CC1=C(O)C(=O)C(C)(O)S1` (stereo not shown) [thiacremonone, 2,4-dihydroxy-2,5-dimethyl-thiophene-3-one]: the “TNF-α and TPA induced NF-κB luciferase activity” value in the experiment with NF-κB was “inhibited TNF-α and TPA induced NF-κB luciferase activity dose-dependently”. For the same compound, in the experiment on SW620 colon cancer cells, the “Expressions of apoptotic proteins Bax, cleaved caspases 3, cleaved PARP” value was “increased”; the “expressions of antiapoptotic protein Bcl-2, cIAP1/2, XIAP and cyclin D1” value is on record as “decreased”; the “iNOS and COX-2 expression” value is “inhibited the expressions dose-dependently”.

The values are drawn from patent publication US7759391B2, “Pharmaceutical composition comprising thiacremonone for treating colon cancer” (Chungbuk National University Industry Academic Cooperation …, priority 2007, dated 2010).
